This experiment deals with P388 leukemia ip, CD2F1 mice, survival T/C. The experiment is described as follows: NCI In Vivo Anticancer Drug Screen. Data for tumor model P388 Leukemia (intraperitoneal) in CD2F1 (CDF1) mice. The note with it: endpoint: median survival time, higher = longer survival. The gist of the method: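 Mice carrying the transplanted tumor received test compound or vehicle. Survival was recorded in each group, and the value is the treated-group measurement divided by that of the vehicle-treated control group.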

Where [1] appears, read: dose: 50.0 mg/kg/injection, schedule: Q01DX005 (ip), vehicle: saline with Tween-80.
Where [2] appears, read: dose: 100.0 mg/kg/injection, schedule: Q01DX005 (ip), vehicle: saline with Tween-80.
[3] abbreviates: dose: 200.0 mg/kg/injection, schedule: Q01DX005 (ip), vehicle: saline with Tween-80.
Where [4] appears, read: dose: 50.0 mg/kg/injection, schedule: Q01DX009 (ip), vehicle: saline with Tween-80.
Setting [5] is: dose: 100.0 mg/kg/injection, schedule: Q01DX009 (ip), vehicle: saline with Tween-80.
The mark [6] stands for this setting: dose: 200.0 mg/kg/injection, schedule: Q01DX009 (ip), vehicle: saline with Tween-80.
The mark [7] stands for this setting: dose: 25.0 mg/kg/injection, schedule: Q01DX009 (ip), vehicle: Klucel (hydroxypropylcellulose) (HPC).
Where [8] appears, read: dose: 50.0 mg/kg/injection, schedule: Q01DX009 (ip), vehicle: Klucel (hydroxypropylcellulose) (HPC).
Setting [9] is: dose: 100.0 mg/kg/injection, schedule: Q01DX009 (ip), vehicle: Klucel (hydroxypropylcellulose) (HPC).
Setting [10] is: dose: 50.0 mg/kg/injection, schedule: Q04DX003 (ip), vehicle: saline with Tween-80.
Setting [11] is: dose: 50.0 mg/kg/injection, schedule: Q01DX009 (ip), vehicle: saline.
[12] abbreviates: dose: 100.0 mg/kg/injection, schedule: Q01DX009 (ip), vehicle: saline.
Where [13] appears, read: dose: 200.0 mg/kg/injection, schedule: Q01DX009 (ip), vehicle: saline.
Setting [14] is: dose: 200.0 mg/kg/injection, schedule: Q04DX003 (ip), vehicle: saline with Tween-80.
Setting [15] is: dose: 12.5 mg/kg/injection, schedule: Q01DX009 (ip), vehicle: saline.
The mark [16] stands for this setting: dose: 25.0 mg/kg/injection, schedule: Q01DX009 (ip), vehicle: saline.
Where [17] appears, read: dose: 50.0 mg/kg/injection, schedule: Q01DX009 (ip), vehicle: suspension in saline.
Setting [18] is: dose: 200.0 mg/kg/injection, schedule: Q01DX009 (ip), vehicle: Klucel (hydroxypropylcellulose) (HPC).
[19] abbreviates: dose: 50.0 mg/kg/injection, schedule: Q01DX005 (ip), vehicle: Klucel (hydroxypropylcellulose) (HPC).
[20] abbreviates: dose: 100.0 mg/kg/injection, schedule: Q01DX005 (ip), vehicle: Klucel (hydroxypropylcellulose) (HPC).
The mark [21] stands for this setting: dose: 200.0 mg/kg/injection, schedule: Q01DX005 (ip), vehicle: Klucel (hydroxypropylcellulose) (HPC).
Setting [22] is: dose: 12.5 mg/kg/injection, schedule: Q01DX005 (ip), vehicle: saline with Tween-80.
Setting [23] is: dose: 25.0 mg/kg/injection, schedule: Q01DX005 (ip), vehicle: saline with Tween-80.

Our source for the T/C values is PubChem BioAssay AID330 (DTP/NCI, 2004).

Where “and” joins values, the source holds several entries; their conditions need not be identical. Identical values can stand only once. Inconclusive results and toxic doses are left out.

On to `CCCNC(=O)NC1CC(=O)N(CCC)C1=O` (stereo not given), for which the T/C is, setting by setting: under setting [1], 93 % of control; under setting [2], 100 % of control; under setting [3], 102 % of control.

For `C(=Nc1cccc2ccccc12)Nc1cccc2ccccc12.[Cu+2]`, the T/C by setting is: under setting [4], 96 % of control; under setting [5], 98 % of control; under setting [6], 95 % of control.

`OC(CNC1CC2CCC1C2)COc1cccc2ccccc12` (stereo not given): the T/C by setting is: under setting [7], 107 % of control; under setting [8], 107 % of control; under setting [9], 110 % of control.

Turning to `CC(C)(C)c1cc(C(C)(C)O)c2c(c1)C(C)(C)OS2(C)Cl` (stereo not given), the T/C under setting [10] was 104 % of control.

In the case of `Cc1ccc(NCC2CCCN3CCCCC23)c2c(=O)c3ccccc3sc12` (stereo not given), the T/C reads like this: under setting [1], 101 % of control; under setting [11], 97 % of control; under setting [2], 96 % of control; under setting [12], 99 % of control; under setting [3], 106 % of control; under setting [13], 124 % of control.

Turning to `NC1=NC2C(Cl)=CC=CC2S1` (stereo not given), the T/C under setting [8] is 109 % of control and the T/C under setting [9] was 107 % of control.

For the compound `CCOC(=O)Oc1ccc(/C=N/NC(N)=S)nc1`, the T/C is 163 % of control under setting [4] and 93 % of control under setting [5].

As to `CCN(c1ccccc1)c1nsc(Cl)n1`, the T/C is, setting by setting: under setting [4], 101 % of control; under setting [5], 104 % of control; under setting [6], 104 % of control.

For the compound `Cc1cc(=O)c2c(=O)[nH][nH]c2[nH]1`, the T/C was 100 % of control under setting [10]; 90 % of control (dose: 100.0 mg/kg/injection, schedule: Q04DX003 (ip), vehicle: saline with Tween-80); 90 % of control under setting [14].

In the case of `Cc1ccc(NSC(Cl)(Cl)Cl)cc1`, the T/C was 100 % of control under setting [15]; 100 % of control (dose: 12.5 mg/kg/injection, schedule: Q01DX009 (ip), vehicle: suspension in saline); 100 % of control under setting [16]; 100 % of control (dose: 25.0 mg/kg/injection, schedule: Q01DX009 (ip), vehicle: suspension in saline); 104 % of control and 123 % of control under setting [11]; 97 % of control under setting [17]. The T/C (dose: 100.0 mg/kg/injection, schedule: Q01DX009 (ip), vehicle: suspension in saline) is 87 % of control.

For `Cc1ccc([N+](=O)[O-])cc1I`, the T/C is 99 % of control under setting [8], 99 % of control under setting [9] and 100 % of control under setting [18].

As for `CC(=O)OC1CC(n2cc(C)c(=O)[nH]c2=O)OC1COP(=O)(N1CC1(C)C)N1CC1(C)C` (stereo not given), the T/C reads like this: (dose: 25.0 mg/kg/injection, schedule: Q04DX003 (ip), vehicle: saline with Tween-80) 110 % of control; under setting [14], 159 % of control.

For the compound `CCCCCCCCCCCCNC(=O)NCC(=O)OCC`, the T/C by setting is: under setting [7], 91 % of control; under setting [8], 100 % of control; under setting [9], 103 % of control; under setting [18], 89 % of control.

For `CN1N=Nc2ccccc2C1(O)c1ccc(F)cc1` (stereo not given), the T/C reads like this: under setting [1], 104 % of control; under setting [2], 104 % of control; under setting [3], 107 % of control.

Consider `C=CC1CC(NC(=O)OC)C(=O)O1` (stereo not given), for which the T/C by setting is: under setting [1], 104 % of control; under setting [2], 104 % of control; under setting [3], 99 % of control.

`O=C(Nc1cccc(Cl)c1)N1CC1`: the T/C is, setting by setting: under setting [4], 105 % of control; under setting [5], 113 % of control.

In the case of `CC1=C(C(=O)Nc2ccc(C)cc2C)C(c2cccc([N+](=O)[O-])c2)C(C(=O)Nc2ccc(C)cc2C)=C(C)N1`, the T/C is 100 % of control (dose: 7.5 mg/kg/injection, schedule: Q01DX005 (ip), vehicle: Klucel (hydroxypropylcellulose) (HPC)); 94 % of control (dose: 15.0 mg/kg/injection, schedule: Q01DX005 (ip), vehicle: Klucel (hydroxypropylcellulose) (HPC)); 98 % of control (dose: 30.0 mg/kg/injection, schedule: Q01DX005 (ip), vehicle: Klucel (hydroxypropylcellulose) (HPC)).

As to `O=c1c(N(CCO)CCO)cn(Cc2ccccc2)c(=O)n1Cc1ccccc1`, the T/C was 100 % of control (dose: 25.0 mg/kg/injection, schedule: Q01DX005 (ip), vehicle: Klucel (hydroxypropylcellulose) (HPC)); 102 % of control under setting [19]; 103 % of control under setting [20]; 97 % of control under setting [21].

In the case of `C/C(=N\NC(=S)N1CCCCCC1)c1nccs1`, the T/C under setting [22] was 98 % of control, the T/C under setting [23] was 100 % of control and the T/C under setting [1] was 102 % of control.

In the case of `N#CN=CN1CC2CCC(CC2)C1`, the T/C reads like this: (dose: 3.13 mg/kg/injection, schedule: Q01DX009 (ip), vehicle: saline) 98 % of control; (dose: 6.25 mg/kg/injection, schedule: Q01DX009 (ip), vehicle: saline) 102 % of control; under setting [15], 92 % of control.

Take `O=C1CCCc2cc3c(nc21)C(=O)CCC3`: the T/C under setting [19] was 100 % of control, the T/C under setting [20] was 100 % of control and the T/C under setting [21] was 109 % of control.

Consider `O=C(Nc1cccnc1)c1ccc(CSc2ccc(Cl)cc2)o1`, for which the T/C under setting [19] is 104 % of control, the T/C under setting [20] is 102 % of control and the T/C under setting [21] was 111 % of control.

With `COC(=O)CSSCc1ccccc1`, the T/C runs as follows: (dose: 50.0 mg/kg/injection, schedule: Q01DX005 (ip), vehicle: suspension in saline) 100 % of control; (dose: 100.0 mg/kg/injection, schedule: Q01DX005 (ip), vehicle: suspension in saline) 107 % of control; (dose: 200.0 mg/kg/injection, schedule: Q01DX005 (ip), vehicle: suspension in saline) 107 % of control.

Take `COC1=C(OC)C(C(O)CO)OC1=O` (stereo not given): the T/C runs as follows: (dose: 25.0 mg/kg/injection, schedule: Q01DX009 (ip), vehicle: water) 98 % of control; (dose: 50.0 mg/kg/injection, schedule: Q01DX009 (ip), vehicle: water) 98 % of control; (dose: 100.0 mg/kg/injection, schedule: Q01DX009 (ip), vehicle: water) 90 % of control; (dose: 200.0 mg/kg/injection, schedule: Q01DX009 (ip), vehicle: water) 99 % of control; (dose: 400.0 mg/kg/injection, schedule: Q01DX009 (ip), vehicle: water) 96 % of control.

On to `O=C(O)c1ccc(SSc2ccc(C(=O)O)cc2)cc1`, for which the T/C (dose: 12.5 mg/kg/injection, schedule: Q01DX009 (ip), vehicle: saline with Tween-80) is 97 % of control; the T/C (dose: 25.0 mg/kg/injection, schedule: Q01DX009 (ip), vehicle: saline with Tween-80) was 106 % of control; the T/C under setting [4] is 103 % of control; the T/C under setting [5] is 111 % of control.

`CCc1cccc(CC)c1NC(=O)OCCN(CC)CC`: the T/C is, setting by setting: (dose: 60.0 mg/kg/injection, schedule: Q01DX005 (ip), vehicle: saline with Tween-80) 100 % of control; (dose: 120.0 mg/kg/injection, schedule: Q01DX005 (ip), vehicle: saline with Tween-80) 94 % of control.

In the case of `CC(=O)Nc1ccc(SSc2ccc(NC(C)=O)c3cccnc23)c2ncccc12`, the T/C (dose: 0.78 mg/kg/injection, schedule: Q01DX005 (ip), vehicle: saline with Tween-80) was 91 % of control; the T/C (dose: 1.56 mg/kg/injection, schedule: Q01DX005 (ip), vehicle: saline with Tween-80) was 91 % of control; the T/C (dose: 3.13 mg/kg/injection, schedule: Q01DX005 (ip), vehicle: saline with Tween-80) was 90 % of control; the T/C under setting [22] was 86 % of control; the T/C under setting [23] was 95 % of control; the T/C under setting [1] was 115 % of control.

For `CN1C(=O)C2N(C(=O)C1(C)S)c1ccccc1C2(C)C` (stereo not given), the T/C is 102 % of control under setting [11], 93 % of control under setting [12] and 101 % of control under setting [13].

`CCOC(=O)OC(C#N)(c1ccc([N+](=O)[O-])cc1)c1nccc2ccccc12` (stereo not given): the T/C under setting [15] was 93 % of control, the T/C under setting [16] was 97 % of control and the T/C under setting [17] is 87 % of control.
